Data published in patent US12162820B2 (TAIWANJ PHARMACEUTICALS CO., LTD., priority 2019, dated 2024).

Assays:
Assay type in all cases: biochemical
[1] = target: T1, HDAC3 (Homo sapiens, UniProt O15379); assay: HDAC Inhibition Screening Assay (FLUOR DE LYS Fluorimetric Drug Discovery Kit), HDAC3; conditions: for inhibition at 2 µM: 2 μM compound; for inhibition at 10 µM: 10 μM compound; for inhibition at 50 µM: 50 μM compound
T1 construct: purchased Enzo Life Sciences
Summary of the method: (§1)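 Two-step fluorimetric kit: enzyme deacetylates acetylated-lysine substrate; developer then releases fluorophore. Test cpds 2, 10, 50 μM. Ex 360/485 nm, Em 460/530 nm. Activity = % of basal control minus baseline control.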

[2] = target: T2, ATX (autotaxin) (Homo sapiens, UniProt Q13822); assay: Autotaxin Inhibition Screening Assay (choline release from LPC, LPC-CR); conditions: for inhibition at 4 µM: 4 μM compound; for inhibition at 20 µM: 20 μM compound; for inhibition at 50 µM: 50 μM compound
T2 construct: purchased Cayman 10803
Summary of the method: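 Released choline from 100 μM 14:0 LPC, detected via choline oxidase–HRP–homovanillic acid fluorescence (320/450 nm) kinetically over 90 min, reports activity of 20 ng ATX. Buffer: 50 mM Tris pH 8.0, 50 mM CaCl2, 0.01% Triton X-100; test compounds 4, 20, 50 μM; percent inhibition from blank-subtracted slopes relative to vehicle.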

[3] = target: T3, HDAC2 (Homo sapiens, UniProt Q92769); assay: HDAC Inhibition Screening Assay (FLUOR DE LYS Fluorimetric Drug Discovery Kit), HDAC2; conditions: for inhibition at 2 µM: 2 μM compound; for inhibition at 10 µM: 10 μM compound; for inhibition at 50 µM: 50 μM compound
T3 construct: purchased Enzo Life Sciences
Summary of the method: as §1

[4] = target: T4, HDAC1 (Homo sapiens, UniProt Q13547); assay: HDAC Inhibition Screening Assay (FLUOR DE LYS Fluorimetric Drug Discovery Kit), HDAC1; conditions: for inhibition at 2 µM: 2 μM compound; for inhibition at 10 µM: 10 μM compound; for inhibition at 50 µM: 50 μM compound
T4 construct: purchased Enzo Life Sciences
Summary of the method: as §1

T3 sequence (Q92769 whole entry): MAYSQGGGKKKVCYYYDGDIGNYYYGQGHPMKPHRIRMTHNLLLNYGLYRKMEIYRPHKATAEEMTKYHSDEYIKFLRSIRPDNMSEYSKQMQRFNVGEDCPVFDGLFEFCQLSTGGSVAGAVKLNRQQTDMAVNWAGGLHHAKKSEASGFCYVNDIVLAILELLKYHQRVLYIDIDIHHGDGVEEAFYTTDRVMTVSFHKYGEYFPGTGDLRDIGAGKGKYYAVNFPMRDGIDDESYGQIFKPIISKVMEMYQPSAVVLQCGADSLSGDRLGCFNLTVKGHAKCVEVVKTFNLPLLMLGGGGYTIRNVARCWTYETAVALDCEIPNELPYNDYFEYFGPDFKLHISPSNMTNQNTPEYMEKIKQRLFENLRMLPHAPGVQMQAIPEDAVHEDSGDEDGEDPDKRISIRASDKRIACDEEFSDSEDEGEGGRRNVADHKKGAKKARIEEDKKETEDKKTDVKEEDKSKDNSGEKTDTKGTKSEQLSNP
T1 sequence (O15379 whole entry): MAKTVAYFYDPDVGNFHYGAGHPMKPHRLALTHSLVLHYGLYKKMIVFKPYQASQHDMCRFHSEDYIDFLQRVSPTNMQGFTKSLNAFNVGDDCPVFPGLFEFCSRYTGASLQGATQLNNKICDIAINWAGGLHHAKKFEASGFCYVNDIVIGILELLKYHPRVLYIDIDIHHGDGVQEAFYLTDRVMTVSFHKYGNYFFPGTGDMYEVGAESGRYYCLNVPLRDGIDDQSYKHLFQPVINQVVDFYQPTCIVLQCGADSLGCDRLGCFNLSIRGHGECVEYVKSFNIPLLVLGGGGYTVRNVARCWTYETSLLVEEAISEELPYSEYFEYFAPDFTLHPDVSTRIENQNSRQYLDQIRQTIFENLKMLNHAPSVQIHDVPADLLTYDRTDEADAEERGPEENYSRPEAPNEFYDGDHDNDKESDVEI
T1 sequence (O75376 395-489 partner limits assumed): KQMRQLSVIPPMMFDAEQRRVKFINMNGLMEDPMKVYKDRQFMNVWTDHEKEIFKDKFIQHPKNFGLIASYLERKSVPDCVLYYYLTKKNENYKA
T4 sequence (Q13547 whole entry): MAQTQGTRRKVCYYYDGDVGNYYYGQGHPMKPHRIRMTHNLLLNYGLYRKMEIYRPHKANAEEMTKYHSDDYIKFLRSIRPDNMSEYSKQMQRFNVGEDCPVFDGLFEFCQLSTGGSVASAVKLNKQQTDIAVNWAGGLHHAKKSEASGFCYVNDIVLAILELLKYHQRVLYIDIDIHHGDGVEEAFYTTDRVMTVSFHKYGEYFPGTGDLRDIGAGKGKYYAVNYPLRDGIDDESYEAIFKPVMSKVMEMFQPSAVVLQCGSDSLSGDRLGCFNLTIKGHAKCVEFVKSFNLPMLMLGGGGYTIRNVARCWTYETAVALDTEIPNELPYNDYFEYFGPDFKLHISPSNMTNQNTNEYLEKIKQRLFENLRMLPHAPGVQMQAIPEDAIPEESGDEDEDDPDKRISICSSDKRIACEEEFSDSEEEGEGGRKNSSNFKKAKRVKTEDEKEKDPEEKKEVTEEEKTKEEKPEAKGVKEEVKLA

SMILES	inhibition at 2 µM [1] [%]	inhibition at 10 µM [1] [%]	inhibition at 50 µM [1] [%]	inhibition at 4 µM [2] [%]	inhibition at 20 µM [2] [%]	inhibition at 50 µM [2] [%]	inhibition at 2 µM [3] [%]	inhibition at 10 µM [3] [%]	inhibition at 50 µM [3] [%]	inhibition at 2 µM [4] [%]	inhibition at 10 µM [4] [%]	inhibition at 50 µM [4] [%]
Cc1[nH]c2ccccc2c1CCNC1CCCc2cc(/C=C/C(=O)NO)ccc21 (stereo not drawn) [Compound 63, (E)-N-hydroxy-3-(5-((2-(2-methyl-1H-indol-3-yl)ethyl)amino)-5,6,7,8-tetrahydronaphthalen-2-yl)acrylamide]	> 80	> 80	> 80	< 50	< 50	< 50	> 80	> 80	> 80	> 80	> 80	> 80
CN(C(=O)OCc1cc(C(F)(F)F)cc(C(F)(F)F)c1)C1CCc2cc(/C=C/C(=O)NO)ccc21 (stereo not drawn) [Compound 64, 3,5-bis(trifluoromethyl)benzyl (E)-(5-(3-(hydroxyamino)-3-oxoprop-1-en-1-yl)-2,3-dihydro-1H-inden-1-yl)(methyl)carbamate]	< 50	50 to 80	> 80	50 to 80	50 to 80	50 to 80	50 to 80	> 80	> 80	50 to 80	> 80	> 80
CN(C(=O)OCc1cc(C(F)(F)F)cc(C(F)(F)F)c1)C1CCc2ccc(/C=C/C(=O)NO)cc21 (stereo not drawn) [Compound 65, 3,5-bis(trifluoromethyl)benzyl (E)-(6-(3-(hydroxyamino)-3-oxoprop-1-en-1-yl)-2,3-dihydro-1H-inden-1-yl)(methyl)carbamate]	< 50	50 to 80	> 80	> 80	> 80	> 80	50 to 80	> 80	> 80	< 50	50 to 80	> 80
Nc1ccccc1NC(=O)c1ccc(COc2ccc3c(c2)CC/C(=C\c2cc(C(F)(F)F)cc(C(F)(F)F)c2)C3=O)cc1 [Compound 66, (E)-N-(2-aminophenyl)-4-(((6-(3,5-bis(trifluoromethyl)-benzylidene)-5-oxo-5,6,7,8-tetrahydronaphthalen-2-yl)oxy)methyl)benzamide]	< 50	< 50	< 50	< 50	< 50	< 50	< 50	< 50	< 50	< 50	< 50	< 50
Nc1cc(F)ccc1NC(=O)c1ccc(COc2ccc3c(c2)CCC(Cc2cc(C(F)(F)F)cc(C(F)(F)F)c2)C3=O)cc1 (stereo not drawn) [Compound 67, N-(2-amino-4-fluorophenyl)-4-(((6-(3,5-bis(trifluoromethyl)benzyl)-5-oxo-5,6,7,8-tetrahydronaphthalen-2-yl)oxy)methyl)benzamide]	< 50	< 50	< 50	< 50	< 50	< 50	< 50	< 50	< 50	< 50	< 50	< 50
O=C(NO)c1ccc(COc2ccc3c(c2)CCC(Cc2cc(C(F)(F)F)cc(C(F)(F)F)c2)C3=O)cc1 (stereo not drawn) [Compound 68, 4-(((6-(3,5-bis(trifluoromethyl)benzyl)-5-oxo-5,6,7,8-tetrahydronaphthalen-2-yl)oxy)methyl)-N-hydroxybenzamide]	< 50	< 50	< 50	< 50	< 50	< 50	< 50	< 50	< 50	< 50	< 50	< 50
Nc1cc(F)ccc1NC(=O)/C=C/c1ccc(COc2ccc3c(c2)CCCC3=O)cc1 [Compound 69, (E)-N-(2-amino-4-fluorophenyl)-3-(4-(((5-oxo-5,6,7,8-tetra-hydronaphthalen-2-yl)oxy)methyl)phenyl)acrylamide]	< 50	< 50	< 50	< 50	< 50	< 50	< 50	< 50	50 to 80	< 50	< 50	< 50
O=C(/C=C/c1ccc(COc2ccc3c(c2)CCCC3=O)cc1)NO [Compound 70, (E)-N-hydroxy-3-(4-(((5-oxo-5,6,7,8-tetrahydronaphthalen-2-yl)oxy)-methyl)phenyl)acrylamide]	> 80	> 80	> 80	< 50	50 to 80	50 to 80	> 80	> 80	> 80	50 to 80	> 80	> 80
Nc1cc(F)ccc1NC(=O)/C=C/c1ccc(COc2ccc3c(c2)CC/C(=C\c2cc(C(F)(F)F)cc(C(F)(F)F)c2)C3=O)cc1 [Compound 71]	< 50	< 50	< 50	< 50	< 50	< 50	< 50	< 50	< 50	< 50	< 50	< 50
O=C(/C=C/c1ccc(COc2ccc3c(c2)CC/C(=C\c2cc(C(F)(F)F)cc(C(F)(F)F)c2)C3=O)cc1)NO [Compound 72, (E)-3-(4-(((6-((E)-3,5-bis(trifluoromethyl)benzylidene)-5-oxo-5,6,7,8-tetrahydronaphthalen-2-yl)oxy)methyl)phenyl)-N-hydroxyacrylamide]	< 50	< 50	50 to 80	50 to 80	50 to 80	50 to 80	< 50	< 50	50 to 80	< 50	< 50	50 to 80
O=C(/C=C/c1ccc(COc2ccc3c(c2)CCC(Cc2cc(C(F)(F)F)cc(C(F)(F)F)c2)C3=O)cc1)NO (stereo not drawn) [Compound 73, (E)-3-(4-(((6-(3,5-bis(trifluoromethyl)benzyl)-5-oxo-5,6,7,8-tetrahydronaphthalen-2-yl)oxy)methyl)phenyl)-N-hydroxyacrylamide]	< 50	< 50	< 50	< 50	< 50	< 50	< 50	< 50	< 50	< 50	< 50	< 50
O=C(CCCCCNC(=O)COc1ccc2c(c1)CC/C(=C\c1cc(C(F)(F)F)cc(C(F)(F)F)c1)C2=O)NO [Compound 74, (E)-6-(2-((6-(3,5-bis(trifluoromethyl)benzylidene)-5-oxo-5,6,7,8-tetra-hydronaphthalen-2-yl)oxy)acetamido)-N-hydroxyhexanamide]	< 50	> 80	> 80	> 80	> 80	> 80	50 to 80	> 80	> 80	< 50	> 80	> 80
O=C(/C=C/c1ccc(CNC(=O)COc2ccc3c(c2)CC/C(=C\c2cc(C(F)(F)F)cc(C(F)(F)F)c2)C3=O)cc1)NO [Compound 75]	< 50	< 50	50 to 80	50 to 80	50 to 80	50 to 80	< 50	< 50	50 to 80	< 50	< 50	50 to 80
Nc1cc(F)ccc1NC(=O)c1ccc(COc2ccc3c(c2)CC(Cc2cc(C(F)(F)F)cc(C(F)(F)F)c2)C3=O)cc1 (stereo not drawn) [Compound 76, N-(2-amino-4-fluorophenyl)-4-(((2-(3,5-bis(trifluoromethyl)benzyl)-1-oxo-2,3-dihydro-1H-inden-5-yl)oxy)methyl)benzamide]	< 50	< 50	< 50	< 50	< 50	< 50	< 50	< 50	< 50	< 50	< 50	< 50
